Laboratory results: US20230072860A1, “ISOXAZOLINE OXIME FORMATE COMPOUND, PREPARATION METHOD THEREFOR, HERBICIDAL COMPOSITION AND USE THEREOF” (QINGDAO KINGAGROOT CHEMICAL COMPOUND CO., LTD., priority 2020, published 2023)

Legend:
Type in all cases: in vivo
Abutilon theophrasti = assay: Experiment on weeding effect in post-emergence stage; details: dose 15 g a.i./ha, fresh weight control rate level
Outline: (§1)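 Post-emergence spray-tower treatment at 2-3 leaf stage, doses 500, 250, 125, 60, 15 g a.i./ha. Formulation: acetone solution plus Tween 80, methyl oleate EC synergist (1.5 liter/ha), diluted in water. Greenhouse pots; weed control counted 3 weeks post-application, mean of three repeats.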

Amaranthus retroflexus = assay: as above; details: dose 15 g a.i./ha, fresh weight control rate level
Outline: as §1

Digitaria sanguinalis = assay: as above; details: dose 15 g a.i./ha, fresh weight control rate level
Outline: as §1

Echinochloa crusgalli = assay: as above; details: dose 15 g a.i./ha, fresh weight control rate level
Outline: as §1

Eleusine indica = assay: as above; details: dose 15 g a.i./ha, fresh weight control rate level
Outline: as §1

Galium aparine = assay: as above; details: dose 15 g a.i./ha, fresh weight control rate level
Outline: as §1

Leptochloa chinensis = assay: as above; details: dose 15 g a.i./ha, fresh weight control rate level
Outline: as §1

Setaria viridis = assay: as above; details: dose 15 g a.i./ha, fresh weight control rate level
Outline: as §1

Veronica didyma Tenore = assay: as above; details: dose 15 g a.i./ha, fresh weight control rate level
Outline: as §1

[1] = system: Echinochloa crusgalli, Scirpus juncoides, Bidens tripartita L. and Sagittaria trifolia; assay: Weed control effect evaluation in rice field; details: weeds collected from Heilongjiang Province of China
Procedure: Transplanted rice safety evaluation and weed control effect evaluation in rice field:
Rice field soil was loaded into a 1/1,000,000 ha pot. The seeds of Echinochloa crusgalli, Scirpus juncoides, and Bidens tripartita L. were sowed and gently covered with soil, then left to stand still in greenhouse in the state of 0.5-1 cm of water storage. The tuber of Sagittaria trifolia was planted in the next day or 2 days later. It was kept at 3-4 cm of water storage thereafter. The weeds were treated by dripping the WP or SC water diluents prepared according to the common preparation method of the compounds of the present invention with pipette homogeneously to achieve specified effective amount when Echinochloa crusgalli, Scirpus juncoides, and Bidens tripartita L. reached 0.5 leaf stage and Sagittaria trifolia reached the time point of primary leaf stage.
The fertility condition of Echinochloa crusgalli, Scirpus juncoides, Bidens tripartita L. and Sagittaria trifolia 14 days after the treatment of the compound of the invention and the fertility condition of rice 21 days after the treatment of the compound of the invention respectively with the naked eye. Evaluate the weed control effect with the above activity standard level. Many compounds show excellent activity and selectivity. […]

Structure (SMILES) | weeding effect in post-emergence stage, Abutilon theophrasti (level) (Abutilon theophrasti) | weeding effect in post-emergence stage, Amaranthus retroflexus (level) (Amaranthus retroflexus) | weeding effect in post-emergence stage, Digitaria sanguinalis (level) (Digitaria sanguinalis) | weeding effect in post-emergence stage, Echinochloa crusgalli (level) (Echinochloa crusgalli) | weeding effect in post-emergence stage, Eleusine indica (level) (Eleusine indica) | weeding effect in post-emergence stage, Galium aparine (level) (Galium aparine) | weeding effect in post-emergence stage, Leptochloa chinensis (level) (Leptochloa chinensis) | weeding effect in post-emergence stage, Setaria viridis (level) (Setaria viridis) | weeding effect in post-emergence stage, Veronica didyma Tenore (level) (Veronica didyma Tenore) | response of the test weeds to common doses [1]
CCOC(=O)C(C)=NOC(=O)C1(C)CC(c2cc(-n3c(=O)n(C)c(=S)n(C)c3=O)c(F)cc2Cl)=NO1 (stereo not shown) [Compound 123] | 5 (Level 5: growth control rate is above 85%) | 5 (Level 5: growth control rate is above 85%) | 5 (Level 5: growth control rate is above 85%) | 5 (Level 5: growth control rate is above 85%) | 5 (Level 5: growth control rate is above 85%) | 5 (Level 5: growth control rate is above 85%) | 5 (Level 5: growth control rate is above 85%) | 5 (Level 5: growth control rate is above 85%) | 5 (Level 5: growth control rate is above 85%) | 
C/C(=N/OC(=O)C1(C)CC(c2cc(-n3c(=O)n(C)c(=S)n(C)c3=O)c(F)cc2Cl)=NO1)c1ccccc1 (stereo not shown) [Compound 124] | 5 (Level 5: growth control rate is above 85%) | 5 (Level 5: growth control rate is above 85%) | 5 (Level 5: growth control rate is above 85%) | 5 (Level 5: growth control rate is above 85%) | 5 (Level 5: growth control rate is above 85%) | 5 (Level 5: growth control rate is above 85%) | 5 (Level 5: growth control rate is above 85%) | 5 (Level 5: growth control rate is above 85%) | 5 (Level 5: growth control rate is above 85%) | 
Cn1c(=S)n(C)c(=O)n(-c2cc(C3=NOC(C)(C(=O)ON=C(c4ccccc4)c4ccccc4)C3)c(Cl)cc2F)c1=O (stereo not shown) [Compound 140] | 5 (Level 5: growth control rate is above 85%) | 5 (Level 5: growth control rate is above 85%) | 5 (Level 5: growth control rate is above 85%) | 5 (Level 5: growth control rate is above 85%) | 5 (Level 5: growth control rate is above 85%) | 5 (Level 5: growth control rate is above 85%) | 5 (Level 5: growth control rate is above 85%) | 5 (Level 5: growth control rate is above 85%) | 5 (Level 5: growth control rate is above 85%) | 
Cn1c(=S)n(C)c(=O)n(-c2cc(C3=NOC(C)(C(=O)ON=C4CCCC4)C3)c(Cl)cc2F)c1=O (stereo not shown) [Compound 146] | 5 (Level 5: growth control rate is above 85%) | 5 (Level 5: growth control rate is above 85%) | 5 (Level 5: growth control rate is above 85%) | 5 (Level 5: growth control rate is above 85%) | 5 (Level 5: growth control rate is above 85%) | 5 (Level 5: growth control rate is above 85%) | 5 (Level 5: growth control rate is above 85%) | 5 (Level 5: growth control rate is above 85%) | 5 (Level 5: growth control rate is above 85%) | 
CC(C)=NOC(=O)C1(C)CC(c2cc(-n3c(=O)cc(C(F)(F)F)n(C)c3=O)c(F)cc2Cl)=NO1 (stereo not shown) [Compound 160] | 5 (Level 5: growth control rate is above 85%) | 5 (Level 5: growth control rate is above 85%) | 5 (Level 5: growth control rate is above 85%) | 5 (Level 5: growth control rate is above 85%) | 5 (Level 5: growth control rate is above 85%) | 5 (Level 5: growth control rate is above 85%) | 5 (Level 5: growth control rate is above 85%) | 5 (Level 5: growth control rate is above 85%) | 5 (Level 5: growth control rate is above 85%) | 
CC(C)=NOC(=O)C1(C)CC(c2nc(-n3c(=O)cc(C(F)(F)F)n(C)c3=O)c(F)cc2Cl)=NO1 (stereo not shown) [Compound 170] | 5 (Level 5: growth control rate is above 85%) | 5 (Level 5: growth control rate is above 85%) | 5 (Level 5: growth control rate is above 85%) | 5 (Level 5: growth control rate is above 85%) | 5 (Level 5: growth control rate is above 85%) | 5 (Level 5: growth control rate is above 85%) | 5 (Level 5: growth control rate is above 85%) | 5 (Level 5: growth control rate is above 85%) | 5 (Level 5: growth control rate is above 85%) | 
CC(C)=NOC(=O)C1(C)CC(c2cc(-n3c(=S)cc(C(F)(F)F)n(C)c3=O)c(F)cc2Cl)=NO1 (stereo not shown) [Compound 197] | 5 (Level 5: growth control rate is above 85%) | 5 (Level 5: growth control rate is above 85%) | 5 (Level 5: growth control rate is above 85%) | 5 (Level 5: growth control rate is above 85%) | 5 (Level 5: growth control rate is above 85%) | 5 (Level 5: growth control rate is above 85%) | 5 (Level 5: growth control rate is above 85%) | 5 (Level 5: growth control rate is above 85%) | 5 (Level 5: growth control rate is above 85%) | 
CC(C)=NOC(=O)C1(C)CC(c2cc(-n3c(=O)cc(C(F)(F)F)n(C)c3=S)c(F)cc2Cl)=NO1 (stereo not shown) [Compound 218] | 5 (Level 5: growth control rate is above 85%) | 5 (Level 5: growth control rate is above 85%) | 5 (Level 5: growth control rate is above 85%) | 5 (Level 5: growth control rate is above 85%) | 5 (Level 5: growth control rate is above 85%) | 5 (Level 5: growth control rate is above 85%) | 5 (Level 5: growth control rate is above 85%) | 5 (Level 5: growth control rate is above 85%) | 5 (Level 5: growth control rate is above 85%) | 
CCOC(=O)c1cnn(C)c1S(=O)(=O)NC(=O)Nc1nc(OC)cc(OC)n1 [Pyrazosulfuron-ethyl] |  |  |  |  |  |  |  |  |  | resistant
